This note sets out measurements from ChEMBL document CHEMBL1137211, “Inhibitors of phenylethanolamine N-methyltransferase that are predicted to penetrate the blood-brain barrier: design, synthesis, and evaluation of 3-fluoromethyl-7-(N-substituted aminosulfonyl)-1,2,3,4-tetrahydroisoquinolines that possess low affinity toward the alpha2-adrenoceptor” (J Med Chem, 2004).

A word on the Ki: it is a measure of affinity in units of concentration, obtained from inhibition or displacement. Read a high Ki as weaker binding.

Experiment [1] has as its target T1, Adrenergic receptor alpha-2 (Rattus norvegicus, UniProt P22086+P19328+P22909).
T1 sequence (P22086 whole entry): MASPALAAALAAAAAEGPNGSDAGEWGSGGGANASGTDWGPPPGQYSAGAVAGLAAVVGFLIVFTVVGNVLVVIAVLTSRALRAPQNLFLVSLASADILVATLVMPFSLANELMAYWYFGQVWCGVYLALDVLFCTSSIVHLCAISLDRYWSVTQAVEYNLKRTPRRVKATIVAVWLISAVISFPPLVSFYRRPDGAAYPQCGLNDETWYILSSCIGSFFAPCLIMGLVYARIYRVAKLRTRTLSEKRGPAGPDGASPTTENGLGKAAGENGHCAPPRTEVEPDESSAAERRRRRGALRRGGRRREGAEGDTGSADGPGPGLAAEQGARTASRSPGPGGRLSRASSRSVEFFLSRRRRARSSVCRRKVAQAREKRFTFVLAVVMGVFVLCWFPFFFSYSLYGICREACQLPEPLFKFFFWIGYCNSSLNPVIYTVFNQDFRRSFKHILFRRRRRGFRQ
T1 sequence (P19328 whole entry): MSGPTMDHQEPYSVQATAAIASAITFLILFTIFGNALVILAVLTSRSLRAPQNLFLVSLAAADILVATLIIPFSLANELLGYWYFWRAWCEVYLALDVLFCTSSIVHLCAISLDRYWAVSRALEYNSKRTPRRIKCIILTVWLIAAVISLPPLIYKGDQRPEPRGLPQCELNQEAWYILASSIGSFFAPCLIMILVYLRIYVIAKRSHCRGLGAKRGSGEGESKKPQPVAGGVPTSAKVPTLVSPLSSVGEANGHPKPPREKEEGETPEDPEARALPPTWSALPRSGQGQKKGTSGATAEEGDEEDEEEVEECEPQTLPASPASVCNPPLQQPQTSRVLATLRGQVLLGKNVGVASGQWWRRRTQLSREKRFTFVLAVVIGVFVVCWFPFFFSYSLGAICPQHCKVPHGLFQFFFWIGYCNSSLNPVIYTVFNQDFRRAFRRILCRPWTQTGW
T1 sequence (P22909 whole entry): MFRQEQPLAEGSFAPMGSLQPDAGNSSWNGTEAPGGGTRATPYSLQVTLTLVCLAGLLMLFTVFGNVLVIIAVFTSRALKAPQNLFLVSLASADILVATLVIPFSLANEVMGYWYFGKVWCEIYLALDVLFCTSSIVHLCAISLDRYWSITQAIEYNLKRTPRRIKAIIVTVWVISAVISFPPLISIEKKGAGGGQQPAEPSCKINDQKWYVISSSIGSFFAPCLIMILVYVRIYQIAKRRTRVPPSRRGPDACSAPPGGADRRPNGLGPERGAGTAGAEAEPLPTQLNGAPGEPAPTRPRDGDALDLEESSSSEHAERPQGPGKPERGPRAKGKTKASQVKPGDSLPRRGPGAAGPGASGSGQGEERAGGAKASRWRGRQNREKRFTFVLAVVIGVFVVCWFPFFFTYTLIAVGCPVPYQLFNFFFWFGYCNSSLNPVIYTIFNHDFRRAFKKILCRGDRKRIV
Briefly: Inhibition of [3H]clonidine binding to rat Alpha2 adrenoceptor. In kind it is protein assay.

Experiment [2] deals with T2, Phenylethanolamine N-methyltransferase (Homo sapiens, UniProt P11086).
T2 sequence (P11086 whole entry): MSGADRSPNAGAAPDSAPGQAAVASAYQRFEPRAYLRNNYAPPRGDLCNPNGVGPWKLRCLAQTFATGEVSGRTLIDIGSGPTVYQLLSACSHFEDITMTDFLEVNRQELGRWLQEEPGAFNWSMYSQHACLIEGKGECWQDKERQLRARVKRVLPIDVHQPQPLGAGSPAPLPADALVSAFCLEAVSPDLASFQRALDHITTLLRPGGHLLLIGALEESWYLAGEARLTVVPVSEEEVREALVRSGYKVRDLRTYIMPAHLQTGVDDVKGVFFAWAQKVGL
Description: Inhibition of [3H]methyl-AdoMet binding to human phenylethanolamine N-methyl-transferase expressed in Escherichia coli BL21

The next experiment is filed under the species Homo sapiens. Briefly: Ratio of Ki for alpha-2-adrenoceptor to that of PNMT was determined.

SMILES strings stand for the structures.

In experiment [1], `Clc1ccc2c(c1Cl)CNCC2` had a Ki of 0.02 µM. In experiment [1], `O=S(=O)(c1ccc2c(c1)CNC(CF)C2)N1CCSCC1` (stereo not given) gave an inhibition constant (Ki) of 190 µM.

`O=S(=O)(NC12CC3CC(CC(C3)C1)C2)c1ccc2c(c1)CNC(CF)C2` (stereo not given) gave a Ki in experiment [1] of 100 µM.

Turning to `O=S(=O)(Nc1cccc(Cl)c1)c1ccc2c(c1)CNC(CF)C2` (stereo not given), the Ki in experiment [2] is 890 µM; in experiment [1] it was above 1000 µM. The Selectivity in the experiment filed under Homo sapiens is above 1.1. `CCNS(=O)(=O)c1ccc2c(c1)CNC(CF)C2` (stereo not given) gave a Ki in experiment [1] of 550 µM.

Consider `O=S(=O)(Nc1ccc(Cl)cc1)c1ccc2c(c1)CNC(CF)C2` (stereo not given), for which the inhibition constant (Ki) in experiment [1] is 140 µM. Same read-out and setting: then `CCOCCNS(=O)(=O)c1ccc2c(c1)CNC(CF)C2` (stereo not given), with 440 µM; and `O=S(=O)(c1ccc2c(c1)CNC(CF)C2)N1CCCCC1` (stereo not given), with 820 µM; and `O=S(=O)(NCCC(F)(F)F)c1ccc2c(c1)CNC(CF)C2` (stereo not given), with 660 µM. Still for that read-out and setting: the figure for `O=S(=O)(NCCCC(F)(F)F)c1ccc2c(c1)CNC(CF)C2` (stereo not given) is 350 µM. Still for that read-out and setting: then `O=S(=O)(NCCCCc1ccccc1)c1ccc2c(c1)CNC(CF)C2` (stereo not given), with 6.8 µM. In experiment [1], `COCCCNS(=O)(=O)c1ccc2c(c1)CNC(CF)C2` (stereo not given) gave a Ki of 750 µM. Same read-out and setting: then `CC(C)NS(=O)(=O)c1ccc2c(c1)CNC(CF)C2` (stereo not given), with 580 µM; and `CCCNS(=O)(=O)c1ccc2c(c1)CNC(CF)C2` (stereo not given), with 610 µM; and `O=S(=O)(c1ccc2c(c1)CNC(CF)C2)N1CCOCC1` (stereo not given), with 2100 µM.

`O=S(=O)(NCCc1ccccc1)c1ccc2c(c1)CNC(CF)C2` (stereo not given) had a Ki in experiment [1] of 58 µM.

As for `O=S(=O)(NCC(F)(F)F)c1ccc2c(c1)CNC(CF)C2` (stereo not given), the inhibition constant (Ki) in experiment [1] is 1200 µM. `CCCCNS(=O)(=O)c1ccc2c(c1)CNC(CF)C2` (stereo not given) showed an inhibitory constant (Ki) in experiment [1] of 260 µM. With `O=[N+]([O-])c1cccc(NS(=O)(=O)c2ccc3c(c2)CNC(CF)C3)c1` (stereo not given), the inhibitory constant (Ki) was 250 µM in experiment [2] and above 1000 µM in experiment [1]. Moreover, in the experiment listed under Homo sapiens, the Selectivity was above 4.

For the molecule `O=S(=O)(Nc1ccc(O)cc1)c1ccc2c(c1)CNC(CF)C2` (stereo not given), in experiment [1], the Ki was determined as 280 µM. Still for that read-out and setting: then `O=[N+]([O-])c1ccc(NS(=O)(=O)c2ccc3c(c2)CNC(CF)C3)cc1` (stereo not given), with above 1000 µM; and `COCCNS(=O)(=O)c1ccc2c(c1)CNC(CF)C2` (stereo not given), with 430 µM; and `O=S(=O)(NC1CCc2ccccc2C1)c1ccc2c(c1)CNC(CF)C2` (stereo not given), with 1.3 µM. `O=S(=O)(Nc1ccc2ccccc2c1)c1ccc2c(c1)CNC(CF)C2` (stereo not given) showed an inhibitory constant (Ki) in experiment [1] of 12 µM. In experiment [1], `CCOCCCNS(=O)(=O)c1ccc2c(c1)CNC(CF)C2` (stereo not given) yielded an inhibitory constant (Ki) of 350 µM. The molecule `O=S(=O)(Nc1ccc(F)cc1)c1ccc2c(c1)CNC(CF)C2` (stereo not given) yielded a Ki in experiment [1] of 86 µM.
